Series [1] concerns the target T1, Dvl-3 PDZ (Homo sapiens, UniProt Q92997).
T1 construct: spectra of Dvl-3 PDZ in the absence and presence of the compound; His-tag (cleaved yes); made in house
T1 sequence (Q92997 243-336): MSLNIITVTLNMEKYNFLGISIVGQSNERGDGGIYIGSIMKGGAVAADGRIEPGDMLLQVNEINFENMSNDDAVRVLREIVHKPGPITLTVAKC
In words: Binding constant by isothermal titration calorimetry (ITC). The settings on record: for Kd: by ITC, one-site binding model, 25 °C, read-out: K D Dvl-3 PDZ; for n (stoichiometry) Dvl-3 PDZ: ITC one-site fit. (In ITC the heat of successive injections is recorded.)
Procedure: (§2) Isothermal titration calorimetry (ITC) experiments were performed using a VP-ITC system (MicroCal). Protein in 20 mM HEPES buffer and 50 mM NaCl (pH 7.4) was centrifuged and degassed before the experiment. A 200 µM ligand solution containing 2 % DMSO was injected 30 times in 10 µL aliquots at 120 s intervals with a stirring speed of 1000 rpm into a 1.4 mL sample cell containing the Dvl PDZ domain at a concentration of 20 µM at 25 ^∘ C. Control experiment was initially determined by titrating ligand into buffer at the same conditions. […] Thermodynamic properties and binding constants were determined by fitting the data with a non-linear least-squares routine using a single-site binding model with Origin (OriginLab) for ITC v.7.2 (MicroCal).

The target of series [2] is T1, Dvl-3 PDZ. In words: NMR 1H-15N HSQC chemical shift perturbation. The settings on record: for Chemical shift perturbation ΔCSP: Dvl-3 PDZ, average of the three strongest shifting cross peaks. The class given is binding. Here is the method: The results of virtual screening were checked experimentally by comparing 2D ^1H-^15N HSQC (heteronuclear single quantum correlation) spectra of Dvl-3 PDZ in the absence and presence of the compound to elucidate ligand-induced changes of chemical shifts. Chemical shift perturbation differences ( Δ CSP, representing the average of the three strongest shifting cross peaks according to Eq. 1) were evaluated in cases where the residues responding strongest are inside the area defined by Fig. 1a. […] In most cases, the signals of residues S263, V287, and R320 (Fig. 1a) within the conserved binding site were most strongly perturbed (Fig. S2). With the Δ CSP of 0.12 ppm, the isoleucine-derived compound 1 ((2,3-dihydrobenzo[b][1,4]dioxin-6-yl)sulfonyl)-L-isoleucine containing a sulfonamide moiety was detected initially as one of the best “hits” according to chemical shift changes. The sulfonamide is a well-known moiety in drug discovery (Mathvink et al., 1999; Wu et al., 1999; Sleight et al., 1998; O'Brien et al., 2000; Tellew et al., 2003).
Two-dimensional ^1H-^15N HSQC spectra were used to screen a library of 212 compounds designed by the company Enamine for PDZ domains. 50 µM of ^15N -labelled protein samples was prepared in a 20 mM sodium phosphate buffer, containing 50 mM sodium chloride, 0.02 % ( w/v ) NaN3 , at pH 7.4. Stock solutions of small molecules were prepared in DMSO-d6 at a concentration of 160 mM. A ^1H-^15N HSQC spectrum of Dvl PDZ was acquired at 300 K with 5 % DMSO-d6 in the absence of ligand as reference spectrum. Mixtures of 16 compounds were added to ^15N -labelled Dvl PDZ at eightfold molar excess each. The final concentration of DMSO-d6 in the protein–ligand solutions was 5 %. Spectra were acquired with eight scans and 256 points in the indirect dimension. […] The active compound was obtained through successive deconvolution. Experiments were recorded on a Bruker DRX600 spectrometer equipped with a triple-resonance cryoprobe. The preparation of samples was done automatically by a Tecan Genesis RSP 150 pipetting robot. Spectra were analysed using the programs TOPSPIN and SPARKY (Goddard and Kneller, 2003).
50 µM of ^15N -labelled protein samples was prepared in a 20 mM sodium phosphate buffer containing 50 mM sodium chloride, 0.02 % ( w/v ) NaN3 , at pH 7.4. Stock solutions of small molecules were prepared in DMSO-d6 at a concentration of 160 mM. A ^1H-^15N HSQC spectrum of Dvl PDZ was acquired at 300 K with 5 % DMSO-d6 in the absence of ligand as reference spectrum. Mixtures of 16 compounds were added to ^15N -labelled Dvl PDZ at eightfold molar excess each. The final concentration of DMSO-d6 in the protein–ligand solutions was 5 %. Spectra were acquired with eight scans and 256 points in the indirect dimension.
The active compound was obtained through successive deconvolution. Experiments were recorded on a Bruker DRX600 spectrometer equipped with a triple-resonance cryoprobe. The preparation of samples was done automatically by a Tecan Genesis RSP 150 pipetting robot. Spectra were analysed using the programs TOPSPIN and SPARKY.

The subject of series [3] is Dvl-3 PDZ. In words: Binding constant by NMR titration. The settings on record: from NMR K D values. More on the design: species or system human. From the text:
(§1) K D is the equilibrium dissociation constant.

Series [4] concerns the target T1, Dvl-3 PDZ. In words: Binding constant by NMR titration. Particulars: by NMR; mean ± SD of at least six residues; read-out: K D Dvl-3 PDZ.
Excerpt: as §1

The nature of series [5]: MTT cell viability assay. The format is cell-based. The settings on record: human; HEK293 cells, 24 h after treatment; read-out: EC 50 cell viability. How it is done: These compounds were selected due to different substituents at the R 1 , including halogens. […] In this way, we aimed to develop both potent and less-toxic cell-permeable inhibitors. […] Their binding constants almost have the same value despite the different substituents (bromine or chlorine) at the pyrrole rings. […] Instead, a π – π stacking interaction with F259 was observed (Fig. S3i).
HEK293 cells were plated on a 96-well plate and treated with different concentrations of Dvl inhibitors. After 24 h treatment, 20 µL of MTT solution (5 mg mL ^-1 ) was added into each well. After 2 h incubation, cell culture medium was replaced with 50 µL DMSO, and the signal of the purple formazan, produced by living cells, was measured by a plate reader.

Series [6] has as its target T2, Dvl-1 PDZ (Homo sapiens, UniProt O14640, C338S/V250I).
T2 sequence (O14640 245-338 V250I/C338S): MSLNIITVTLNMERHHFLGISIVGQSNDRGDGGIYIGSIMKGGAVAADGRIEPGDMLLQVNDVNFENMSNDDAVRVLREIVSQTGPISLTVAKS
Particulars: ITC.
Procedure: as §2

Several values for one entry are separate records, joined by “and”; a condition that tells them apart may be missing. Equal values may be shown once.

`O=C(Cc1ccccc1)Nc1cccc(C(=O)Nc2ccccc2C(=O)O)c1` [CBC-322338/3289-8625, reference compound]: in series [1] (ITC), the “binding to Dvl-3 PDZ (in words)” value is “did not show”. For the same molecule, the Kd in series [1] is greater than 400 µM; in series [2] (estimated from NMR CSP comparison and weak heat in ITC, read-out: binding affinity to Dvl-3) it was less than 50 µM. Also, the “Chemical shift perturbation ΔCSP” value in series [2] is on record as “around 0.1 ppm”.

Turning to `CC[C@H](C)[C@H](NS(=O)(=O)c1ccc2c(c1)OCCO2)C(=O)O` [Compound 1, ((2,3-dihydrobenzo[b][1,4]dioxin-6-yl)sulfonyl)-L-isoleucine], the “Chemical shift perturbation ΔCSP” value in series [2] is 0.12 ppm.

In the case of `CN1C(=O)Cc2cc(S(=O)(=O)Nc3ccc(F)cc3C(=O)O)ccc21` [Compound 2], the “Chemical shift perturbation ΔCSP” value in series [2] was greater than 0.2 ppm.

Regarding `O=C(O)c1cc(F)ccc1NS(=O)(=O)c1ccc2c(c1)CCC2` [Compound 3], the “discrimination between Dvl-3 PDZ and Dvl-1 PDZ (in words)” value in series [3] is reported as “did not distinguish”. The Kd in series [4] is 80.6 ± 6.1 µM. Also, the EC50 at 24 h in series [5] fell in the range of 61 to 131 µM.

As for `Cc1ccc(S(=O)(=O)Nc2ccc(F)cc2C(=O)O)cc1C` [Compound 4], the “discrimination between Dvl-3 PDZ and Dvl-1 PDZ (in words)” value in series [3] is “did not distinguish”. Further, the Kd in series [4] is 83.9 ± 7.8 µM.

In the case of `CS(=O)(=O)Nc1ccc(F)cc1C(=O)O` [Compound 6], in series [1] (ITC), the “binding to Dvl-3 PDZ (in words)” value is given as “millimolar (mM) range”. The Kd in series [1] was greater than 1000 µM.

For `O=C(O)c1cc(Br)ccc1NS(=O)(=O)c1ccc2c(c1)CCCC2` [Compound 7], in series [4], the Kd is 20.6 ± 2.4 µM. The EC50 at 24 h in series [5] lay within 61 to 131 µM.

For the molecule `O=C(O)c1cc(C(F)(F)F)ccc1NS(=O)(=O)c1ccc2c(c1)CCCC2` [Compound 8, 2-(5,6,7,8-Tetrahydronaphthalene-2-sulfonamido)-5-(trifluoromethyl) benzoic acid], in series [1], the Kd was 17.4 ± 0.5 µM. Further, the EC50 at 24 h in series [5] fell in the range of 61 to 131 µM.

Take `O=C(O)c1cc(Cl)ccc1NS(=O)(=O)c1ccc2c(c1)CCCC2` [Compound 9]: the Kd in series [4] turned out to be 41.1 ± 3.1 µM. For the same molecule, the EC50 at 24 h in series [5] lay within 61 to 131 µM.

As for `Cc1ccc(NS(=O)(=O)c2ccc3c(c2)CCCC3)c(C(=O)O)c1` [Compound 10], the Kd in series [4] stood at 62.5 ± 4.7 µM. Also, the EC50 at 24 h in series [5] lay in the range of 61 to 131 µM.

In the case of `O=C(O)c1cc(Br)ccc1NS(=O)(=O)c1ccc2ccccc2c1` [Compound 11, 5-Bromo-2-(naphthalene-2-sulfonamido) benzoic acid], the Kd in series [1] amounted to 13.8 µM.

For the molecule `O=C(O)c1cc(Br)ccc1NS(=O)(=O)Cc1ccccc1` [Compound 12, 5-Bromo-2-(phenylmethylsulfonamido)benzoic acid], the Kd in series [1] was determined as 58.5 µM.

In the case of `O=C(O)c1cc(Br)ccc1NS(=O)(=O)c1ccc(COc2ccccc2)cc1` [Compound 13, 5-Bromo-2-(4-(phenoxymethyl)phenylsulfonamido)benzoic acid], the Kd in series [1] was 7.2 µM.

As for `Cc1cc(C)c(S(=O)(=O)Nc2ccc(Br)cc2C(=O)O)c(C)c1` [Compound 14, 5-Bromo-2-(2,4,6-trimethylphenylsulfoamido)benzoic acid], the Kd in series [1] was 58.1 ± 2.1 µM.

With `CC(=O)c1ccc(S(=O)(=O)Nc2ccc(C(F)(F)F)cc2C(=O)O)cc1` [Compound 15, 2-(4-Acetylphenylsulfoamido)-5-(trifluoromethyl)benzoic acid], the Kd in series [1] turned out to be 52.9 ± 1.7 µM.

As to `O=C(O)c1cc(C(F)(F)F)ccc1NS(=O)(=O)c1ccc2c(c1)OCCO2` [Compound 16, 2-(2,3-Dihydrobenzo[b][1,4]dioxine-6-sulfonamido)-5-(trifluoromethyl)benzoic acid], the Kd in series [1] was 59.1 ± 1.5 µM.

Turning to `Cc1cc(C)c(S(=O)(=O)Nc2ccc(C(F)(F)F)cc2C(=O)O)c(C)c1` [Compound 17, 5-(Trifluoromethyl)-2-(2,4,6-trimethylphenylsulfoamido)benzoic acid], in series [1], the Kd is 49.5 µM.

For `Cc1ccc(NS(=O)(=O)c2ccc(CNC(=O)c3c[nH]c4ccccc34)c(Cl)c2)c(C(=O)O)c1` [Compound 19], in series [1] (ITC), the “T Δ S Dvl-3 PDZ” value is 0.4 kcal mol ^-1 and the “Δ H Dvl-3 PDZ” value was -5.9 kcal mol ^-1. Further, the Kd in series [1] is 21.8 µM and 21 µM. For the same molecule, in series [6], the “T Δ S Dvl-1 PDZ” value is listed as -0.3 kcal mol ^-1, the “Δ G Dvl-1 PDZ” value was -7.0 kcal mol ^-1 and the “Δ H Dvl-1 PDZ” value is recorded as -7.3 kcal mol ^-1.

On to `O=C(O)c1cccc(S(=O)(=O)Nc2cccc(S(=O)(=O)Nc3ccccc3C(=O)O)c2)c1` [NPL-1011, 3-( {3-[(2-carboxyphenyl)sulfamoyl]phenyl}sulfamoyl)benzoic acid, reference compound], for which, in series [1], the “n (stoichiometry) Dvl-3 PDZ” value worked out at 0.90 ± 0.08 and the Kd amounted to 79.7 ± 53.3 µM. Further, in series [1] (ITC, Fig. S7), the “-tΔS Dvl-3 PDZ” value is reported as -2.8 kcal/mol, the “Δ G Dvl-3 PDZ” value is listed as -5.5 kcal/mol and the “Δ H Dvl-3 PDZ” value is -2.7 ± 1.2 kcal/mol.

As to `CC(C)[C@H](OC(=O)[C@H](C)NC(=O)[C@@H](OC(=O)[C@H](C)NC(=O)OC(C)(C)C)C(C)C)C(=O)O` [NSC668036, reference compound], in series [1] (ITC), the “binding to Dvl-3 PDZ (in words)” value is recorded as “did not show high-affinity binding”. Moreover, in series [1], the Kd was greater than 400 µM.

On to `CC1=C(CC(=O)O)c2cc(F)ccc2/C1=C\c1ccc([S+](C)[O-])cc1` (centres unmarked) [Sulindac, reference compound], for which the “n (stoichiometry) Dvl-3 PDZ” value in series [1] is 0.97 ±0.14. Moreover, in series [1] (ITC, Fig. S7), the “-tΔS Dvl-3 PDZ” value is listed as 24.9 kcal/mol and the “Δ H Dvl-3 PDZ” value is -31.9 kcal/mol.

The record behind these values is PMC10539800, “Small-molecule inhibitors of the PDZ domain of Dishevelled proteins interrupt Wnt signalling” (Magnetic resonance, 2021).
